From US20210186947A1, “TOMM6-INTERACTING EXTRACTS AND COMPOUNDS FOR USE IN THE TREATMENT AND PROPHYLAXIS OF NERVOUS SYSTEM DISEASES, ATHEROSCLEROSIS, HEPATITIS B INFECTION AND HUMAN PAPILLOMA VIRUS (HPV) INFECTION” (ETH ZURICH, priority 2018, published 2021)

Experiments:
[1] = tested on: Ccr9; test: Whole genome microarray gene expression analysis of aortic genes: Ccr9; type: in vivo; conditions: ApoE-/- mice, 10 mg/kg/day for 8 months
Procedure: Whole genome microarray gene expression profiling was performed with aortic specimens isolated from 9-month-old ApoE−/− mice without treatment and with oral treatment for 8 months with alizarin (10 mg/kg/day), and untreated age-matched B6 control mice. Total RNA was isolated by the RNeasy Mini kit according to the protocol of the manufacturer (Qiagen). RNA purity was between 1.8 and 2 as determined by the absorbance ratio of 260/280. RNA quality and absence of signs of degradation were also controlled by RNA electrophoresis on a denaturing agarose gel by the presence of bright bands of 28S and 18S ribosomal RNA. Total RNA was processed for whole genome microarray gene expression profiling with the GeneChip One-Cycle Target Labeling System (Affymetrix) according to the protocol of the manufacturer (Affymetrix GeneChip Expression Analysis Technical Manual Rev. 5). […]
Alzheimer's Disease (AD) is the most frequent form of dementia in the elderly. […] Atherosclerotic lesion area was assessed with oil red O-stained aortas isolated from 9-month-old ApoE−/− mice (FIG. 17A). […] The aortic expression levels of neuronal marker genes of alizarin-treated ApoE−/− mice were determined compared to untreated ApoE−/− mice and untreated B6 mice without atherosclerosis (FIG. 17D,E).

[2] = Body weight and food intake of B6 mice under oral treatment; conditions: oral 100 mg/kg/day for 4 weeks

O=C1c2ccccc2C(=O)c2c1ccc(O)c2O [Compound-1, 1,2-dihydroxyanthraquinone]
aortic expression of Ccr9 [1]: significantly decreased expression | body weight ([2]; 12-week-old B6 mice): did not significantly alter | daily food intake / food consumption ([2]; B6 mice): did not significantly alter
